In brackets after ≈: the same amount, converted by molar mass.

The text below walks through data of ChEMBL document CHEMBL1150074, “Cytotoxic aromatic triterpenes from Maytenus ilicifolia and Maytenus chuchuhuasca” (J Nat Prod, 1994).

Holding throughout (format): functional, cell-based
For assay [1], the system named is P388. The assay can be described thus: Cytotoxicity against mouse P388 cells by MTT assay.
The test system of assay [2] is KB. Put plainly: Cytotoxicity against human KB cells by MTT assay.
The subject of assay [3] is L1210. The assay can be described thus: Cytotoxicity against mouse L1210 cells by MTT assay.

Consider `COC(=O)[C@]1(C)CC[C@]2(C)CC[C@]3(C)C4=CC(=O)c5c(cc(O)c(O)c5C)[C@]4(C)CC[C@@]3(C)[C@@H]2C1`, for which the half-inhibitory concentration (IC50) in assay [1] came to 1.5 µg/mL (≈ 3.12 µM); in assay [2] it was 2.8 µg/mL (≈ 5.83 µM); in assay [3] it was 2.8 µg/mL (≈ 5.83 µM).
In the case of `COc1c(O)cc2c(c1CO)C(=O)C=C1[C@@]2(C)CC[C@]2(C)[C@@H]3C[C@@H](C)C(=O)[C@@H](O)[C@]3(C)CC[C@]12C`, inhibition in assay [1] was half-maximal at 4.3 µg/mL (≈ 8.91 µM) (IC50).
For the molecule `COc1c(O)cc2c(c1C)C(=O)C=C1[C@@]2(C)CC[C@]2(C)[C@@H]3C[C@@H](C)C(=O)C[C@]3(C)CC[C@]12C`, the IC50 in assay [1] is above 100 µg/mL; in assay [2], 11 µg/mL (≈ 24.4 µM); in assay [3], above 100 µg/mL.
`Cc1c(O)c(O)cc2c1C(=O)C=C1[C@@]2(C)CC[C@@]2(C)[C@@H]3C[C@@H](C)C(=O)C[C@]3(C)CC[C@]12C` [6-OXOTINGENOL]: the half-maximal inhibitory concentration (IC50) was found to be 2.6 µg/mL (≈ 5.96 µM) in assay [1], 30 µg/mL (≈ 68.7 µM) in assay [2] and 6 µg/mL (≈ 13.7 µM) in assay [3].
The matching figures for `COC(=O)[C@]1(C)CC[C@]2(C)CC[C@]3(C)C4=CC=C5C(=CC(=O)C(O)=C5C)[C@]4(C)CC[C@@]3(C)[C@@H]2C1` [PRISTIMERIN]: 0.12 µg/mL (≈ 0.258 µM), 0.55 µg/mL (≈ 1.18 µM) and 0.36 µg/mL (≈ 0.775 µM).
Molecule `CC1=C(O)C(=O)C=C2C1=CC=C1[C@@]2(C)CC[C@@]2(C)[C@@H]3C[C@@H](C)C(=O)[C@@H](O)[C@]3(C)CC[C@]12C` [TINGENIN B] returned an IC50 in assay [1] of 0.012 µg/mL (≈ 0.0275 µM).
Take `CC1=C(O)C(=O)C=C2C1=CC=C1[C@@]2(C)CC[C@@]2(C)[C@@H]3C[C@@H](C)C(=O)C[C@]3(C)CC[C@]12C` [TINGENONE]: the half-maximal inhibitory concentration (IC50) is 0.041 µg/mL (≈ 0.0975 µM) in assay [1], 0.28 µg/mL (≈ 0.666 µM) in assay [2] and 0.14 µg/mL (≈ 0.333 µM) in assay [3].
